The source made the active and inactive calls. The calls are words filed in the database; no cut-off is given here.
Legend:
[1] = Cytotoxicity against human BGC823 cells by MTT assay; type: functional, cell-based; details: BGC-823
[2] = Cytotoxicity against human SKOV3 cells by MTT assay; type: functional, cell-based; details: SK-OV-3
[3] = test system: A-375; assay: Cytotoxicity against human A375 cells by MTT assay; type: functional, cell-based
[4] = test system: HepG2; assay: Cytotoxicity against human HepG2 cells by MTT assay; type: functional, cell-based
[5] = test system: CWR22R; assay: Cytotoxicity against human 22Rv1 cells by MTT assay; type: functional, cell-based
[6] = Cytotoxicity against mouse LLC cells by MTT assay; type: functional, cell-based; details: Lewis lung carcinoma
[7] = Cytotoxicity against human ECA109 cells by MTT assay; type: functional, cell-based; details: ECa-109
[8] = test system: MCF7; assay: Cytotoxicity against human MCF7 cells by MTT assay; type: functional, cell-based
[9] = test system: 769-P; assay: Cytotoxicity against human 769-P cells by MTT assay; type: functional, cell-based
[10] = test system: HT-29; assay: Cytotoxicity against human HT-29 cells by MTT assay; type: functional, cell-based
[11] = test system: Chorioallantoic membrane; assay: Antiangiogenic activity in chicken chorioallantoic membrane at 200 uM after 48 hrs by microscopic analysis; type: functional; details: Gallus gallus
[12] = test system: Chorioallantoic membrane; assay: Antiangiogenic activity in chicken chorioallantoic membrane at 50 to 200 uM after 48 hrs by microscopic analysis; type: functional; details: Gallus gallus

Row | SMILES | IC50 [1] | IC50 [2] | IC50 [3] | IC50 [4] | IC50 [5] | IC50 [6] | IC50 [7] | IC50 [8] | IC50 [9] | IC50 [10] | inhibition [11] | inhibition [12]
1 | COc1ccc(-c2nc(CN3CCN(Cc4cc5c6ccccc6n(Cc6ccccc6)c5c(-c5ccc(OC)c(OC)c5)n4)CC3)cc3c4ccccc4n(Cc4ccccc4)c23)cc1OC | > 100 µM | > 100 µM | > 100 µM | > 100 µM | > 100 µM | 36.4 µM | > 100 µM | > 100 µM | > 100 µM | > 100 µM | – | –
2 | Fc1ccc(Cn2c3ccccc3c3cc(CN4CCN(Cc5cc6c7ccccc7n(Cc7ccc(F)cc7)c6cn5)CC4)ncc32)cc1 | 85.6 µM | 8.43 µM | 46 µM | 76.3 µM | 60.6 µM | 15.9 µM | 24.7 µM | 72.8 µM | 29 µM | 18.3 µM | – | –
3 | c1ccc(CCCn2c3ccccc3c3cc(CN4CCN(Cc5cc6c7ccccc7n(CCCc7ccccc7)c6c(-c6ccccc6)n5)CC4)nc(-c4ccccc4)c32)cc1 | > 100 µM | > 100 µM | > 100 µM | > 100 µM | > 100 µM | > 100 µM | > 100 µM | > 100 µM | > 100 µM | > 100 µM | – | –
4 | COc1ccc(-c2nc(CN3CCN(Cc4cc5c6ccccc6n(CCCc6ccccc6)c5c(-c5ccc(OC)c(OC)c5)n4)CC3)cc3c4ccccc4n(CCCc4ccccc4)c23)cc1OC | > 100 µM | > 100 µM | > 100 µM | > 100 µM | > 100 µM | > 100 µM | > 100 µM | > 100 µM | > 100 µM | > 100 µM | – | –
5 | Cc1nc(CN2CCN(Cc3cc4c5ccccc5n(C)c4c(C)n3)CC2)cc2c3ccccc3n(C)c12 | 78.5 µM | 31 µM | > 100 µM | > 100 µM | 86.3 µM | 61.8 µM | > 100 µM | > 100 µM | > 100 µM | > 100 µM | – | –
6 | CCCCn1c2ccccc2c2cc(CN3CCN(Cc4cc5c6ccccc6n(CCCC)c5c(-c5ccc(OC)cc5)n4)CC3)nc(-c3ccc(OC)cc3)c21 | 28.8 µM | 24.6 µM | 19.6 µM | 25.7 µM | 27.6 µM | 27.4 µM | 24.7 µM | 20.6 µM | 16.6 µM | 11.8 µM | – | –
7 | COc1ccc(-c2nc(CN3CCN(Cc4cc5c6ccccc6n(C)c5c(-c5ccc(OC)cc5)n4)CC3)cc3c4ccccc4n(C)c23)cc1 | 56.3 µM | 57.8 µM | 45.7 µM | 55 µM | 47.8 µM | 69 µM | 68.5 µM | > 100 µM | > 100 µM | 29 µM | – | –
8 | Cn1c2ccccc2c2cc(CN3CCN(Cc4cc5c6ccccc6n(C)c5c(-c5ccccc5)n4)CC3)nc(-c3ccccc3)c21 | > 100 µM | > 100 µM | 40.9 µM | > 100 µM | 54.3 µM | 34.5 µM | > 100 µM | > 100 µM | > 100 µM | > 100 µM | – | –
9 | COc1ccc(-c2nc(CN3CCN(Cc4cc5c([nH]c6ccccc65)c(-c5ccc(OC)cc5)n4)CC3)cc3c2[nH]c2ccccc23)cc1 | > 100 µM | > 100 µM | > 100 µM | > 100 µM | > 100 µM | > 100 µM | > 100 µM | > 100 µM | > 100 µM | > 100 µM | – | –
10 | COc1ccc(/C=C\c2cc(OC)c(OC)c(OC)c2)cc1OP(=O)(O)O | – | – | – | – | – | – | – | – | – | – | Active | –
11 | CCn1c2ccccc2c2cc(CN3CCN(Cc4cc5c6ccccc6n(CC)c5cn4)CC3)ncc21 | 68.6 µM | 24.4 µM | 49.9 µM | > 100 µM | 52.3 µM | 13.8 µM | > 100 µM | 82.8 µM | 64.3 µM | 32.8 µM | – | –
12 | CCn1c2ccccc2c2cc(CN3CCN(Cc4cc5c6ccccc6n(CC)c5c(-c5ccccc5)n4)CC3)nc(-c3ccccc3)c21 | 38.8 µM | 19.8 µM | 9.92 µM | > 100 µM | 24.9 µM | 14 µM | > 100 µM | > 100 µM | 29.6 µM | 17.6 µM | – | –
13 | COc1ccc(-c2nc(CN3CCN(Cc4cc5c6ccccc6n(Cc6ccccc6)c5c(-c5ccc(OC)cc5)n4)CC3)cc3c4ccccc4n(Cc4ccccc4)c23)cc1 | > 100 µM | > 100 µM | > 100 µM | > 100 µM | > 100 µM | 40.4 µM | > 100 µM | > 100 µM | > 100 µM | > 100 µM | – | –
14 | COc1cc(-c2nc(CN3CCN(Cc4cc5c6ccccc6n(CCCc6ccccc6)c5c(-c5cc(OC)c(OC)c(OC)c5)n4)CC3)cc3c4ccccc4n(CCCc4ccccc4)c23)cc(OC)c1OC | > 100 µM | > 100 µM | > 100 µM | > 100 µM | > 100 µM | > 100 µM | > 100 µM | > 100 µM | > 100 µM | > 100 µM | – | –
15 | COc1cc(-c2nc(CN3CCN(Cc4cc5c6ccccc6n(C)c5c(-c5cc(OC)c(OC)c(OC)c5)n4)CC3)cc3c4ccccc4n(C)c23)cc(OC)c1OC | 45.3 µM | 18.9 µM | 64.2 µM | > 100 µM | > 100 µM | 39 µM | 26.3 µM | 65.6 µM | > 100 µM | > 100 µM | – | –
16 | CCCCn1c2ccccc2c2cc(CN3CCN(Cc4cc5c6ccccc6n(CCCC)c5c(-c5ccc(OC)c(OC)c5)n4)CC3)nc(-c3ccc(OC)c(OC)c3)c21 | 6.21 µM | 25.7 µM | 15.5 µM | 17 µM | 19.5 µM | 9.78 µM | 32.4 µM | 14.5 µM | 10 µM | 11.8 µM | – | –
17 | Cc1nc(CN2CCN(Cc3cc4c5ccccc5n(CC(C)C)c4c(C)n3)CC2)cc2c3ccccc3n(CC(C)C)c12 | 10.8 µM | 16 µM | 13 µM | 9.66 µM | 12.5 µM | 7.68 µM | 14.3 µM | 7.16 µM | 12.7 µM | 11.3 µM | – | Active
18 | c1ccc(Cn2c3ccccc3c3cc(CN4CCN(Cc5cc6c7ccccc7n(Cc7ccccc7)c6c(-c6ccccc6)n5)CC4)nc(-c4ccccc4)c32)cc1 | > 100 µM | > 100 µM | > 100 µM | > 100 µM | > 100 µM | > 100 µM | > 100 µM | > 100 µM | > 100 µM | > 100 µM | – | –
19 | COc1ccc(-c2nc(CN3CCN(Cc4cc5c6ccccc6n(CCCc6ccccc6)c5c(-c5ccc(OC)cc5)n4)CC3)cc3c4ccccc4n(CCCc4ccccc4)c23)cc1 | > 100 µM | > 100 µM | > 100 µM | > 100 µM | > 100 µM | > 100 µM | > 100 µM | > 100 µM | > 100 µM | > 100 µM | – | –
20 | Cc1nc(CN2CCN(Cc3cc4c5ccccc5n(Cc5cccc(Cl)c5)c4c(C)n3)CC2)cc2c3ccccc3n(Cc3cccc(Cl)c3)c12 | 40.8 µM | 51.4 µM | 32.4 µM | 38.1 µM | 40.8 µM | 12 µM | 57.6 µM | 43.7 µM | 45.8 µM | 25.2 µM | – | –
21 | c1ccc(Cn2c3ccccc3c3cc(CN4CCN(Cc5cc6c7ccccc7n(Cc7ccccc7)c6cn5)CC4)ncc32)cc1 | > 100 µM | 46.5 µM | > 100 µM | 65.4 µM | > 100 µM | 79.8 µM | > 100 µM | > 100 µM | > 100 µM | 36.8 µM | – | –
22 | CCCCn1c2ccccc2c2cc(CN3CCN(Cc4cc5c6ccccc6n(CCCC)c5cn4)CC3)ncc21 | 9.52 µM | 11.3 µM | 16.8 µM | 15.2 µM | 43.9 µM | 2.36 µM | 26.4 µM | 29.2 µM | 38.2 µM | 17.1 µM | – | –
23 | CCCCn1c2ccccc2c2cc(CN3CCN(Cc4cc5c6ccccc6n(CCCC)c5c(-c5cc(OC)c(OC)c(OC)c5)n4)CC3)nc(-c3cc(OC)c(OC)c(OC)c3)c21 | 26.6 µM | 7.11 µM | 36 µM | 7.26 µM | 6.82 µM | 19.8 µM | 18.3 µM | 12.5 µM | 15.6 µM | 13.5 µM | – | –
24 | c1ccc(CCCn2c3ccccc3c3cc(CN4CCN(Cc5cc6c7ccccc7n(CCCc7ccccc7)c6cn5)CC4)ncc32)cc1 | 7.62 µM | 5.51 µM | 8.35 µM | 8.95 µM | 5.32 µM | 5.15 µM | 24.6 µM | 7.62 µM | 3.02 µM | 18.7 µM | – | –
25 | CCn1c2ccccc2c2cc(CN3CCN(Cc4cc5c6ccccc6n(CC)c5c(-c5ccc(OC)c(OC)c5)n4)CC3)nc(-c3ccc(OC)c(OC)c3)c21 | 19.8 µM | 32.7 µM | 37.3 µM | 27.2 µM | 42.3 µM | 9.68 µM | 68.5 µM | 27.3 µM | 61.1 µM | 34.3 µM | – | –
26 | COc1cc(-c2nc(CN3CCN(Cc4cc5c([nH]c6ccccc65)c(-c5cc(OC)c(OC)c(OC)c5)n4)CC3)cc3c2[nH]c2ccccc23)cc(OC)c1OC | > 100 µM | > 100 µM | > 100 µM | > 100 µM | > 100 µM | > 100 µM | > 100 µM | > 100 µM | > 100 µM | > 100 µM | – | –
